# Entries after “also recorded” stand apart in the source; their conditions may differ.
# Assays:
# Type in all cases: in vivo, mice
# [1] = tested on: mitochondrial depolarization in hepatocytes; assay: Intravital multiphoton microscopy of mitochondrial depolarization (Rh123/PI) after hepatic IR; conditions: 1 h of ischemia and 2 h of reperfusion
# Source text: MPT onset is an important mechanism leading to cell death due to mitochondrial depolarization. […] There are two main advantages of multiphoton microscopy: 1) Red/infrared light penetrates deeper than visible light into solid tissues allowing visualization of tissue planes as deep as 1 mm into thick specimens. […] Therefore, the viability of thick living specimens is maintained much longer with multiphoton microscopy (Lemasters 2000). These advantages make multiphoton microscopy a powerful tool for studying mitochondrial function in live animals.
# Following 1 h-ischemia and […], rhodamine-123 (Rh123), a cationic fluorophore that is taken up by polarized mitochondria, and propidium iodine (PI) that labels the nuclei of non-viable cells were infused and intravital multiphoton imaging of livers was performed. […]
# Imaging of fluorescent probes Rh123, PI and calcein in vivo was achieved using a Zeiss LSM 510 laser scanning multiphoton microscope system using IR excitation of 800-900 nm from a Coherent Chameleon tunable Ti-Sapphire femtosecond pulsed laser, which excites both red- and green-fluorescing (rhodamine- and fluorescein-like) fluorophores. For calcein fluorescence, excitation of 720-nm was used.
# [2] = tested on: PMN infiltration in liver; assay: PMN infiltration (MPO immunohistochemistry) after hepatic warm IR
# Procedure: ABC294640 prevents hepatic warm ischemia-reperfusion (IR)-induced polymorphonuclear leukocyte (PMN) infiltration in mice. Hepatic warm ischemia was induced by clamping the mouse hepatic artery and portal vein to the upper three lobes of the liver as described in the original application. One hour later, the ischemic liver was reperfused by opening the vascular clamp. Livers were collected 6 h later and myeloperoxidase (MPO), a marker of PMNs, was detected immunohistochemically. MPO-positive cells were counted in 10 fields selected randomly per slide in a blinded manner to assess PMN infiltration. MPO-positive cells were ˜1/high power field (hpf) in livers from sham-operated mice (FIG. 16). Six hours after reperfusion, MPO-positive cells increased almost 10-fold, indicating pronounced inflammation. […] ABC294640 (50 mg/kg, i.g. once) decreased PMN infiltration by ˜70% at 6 h after reperfusion (FIG. 16). Livers from mice exposed to one dose of ABC294640 had lower PMN infiltration compared to the untreated mice even at 2 weeks after reperfusion. […] Immunohistochemistry: Sections were deparaffinized in xylene, rehydrated in a series of graded alcohol concentrations and placed in phosphate buffered saline with 0.1% Tween-20. […] Appropriate peroxidase-conjugated secondary antibodies (DAKO Corp.) were then applied, followed by 3,3′-diaminobenzidine chromagen as the peroxidase substrate. A light counterstain of Meyer's hematoxylin was applied.
# [3] = tested on: SK expression in the liver; assay: SK immunohistochemistry in liver after hepatic warm IR; conditions: 50 mg/kg gavage 1 h prior to surgery; 1 h-ischemia plus 6 h-reperfusion
# Procedure: Warm IR upregulates SK in the liver. IR injury to the liver occurs in LT. Since SK is associated with inflammatory processes, we investigated whether IR affects SK expression in the liver. Male C57BL/6 mice (8-9 weeks) were gavaged with ABC294640 (ABC, 50 mg/kg) or an equal volume of vehicle (0.375% Tween-80 in phosphate buffer) 1 h prior to surgery. Under ether anesthesia, hepatic ischemia was induced by clamping the hepatic artery and portal vein to the upper three lobes of the liver (i.e., about 70% of total liver). One hour later, the ischemic liver was reperfused by opening the vascular clamp. Livers were collected 6 h later under pentobarbital anesthesia (80 mg/kg, i.p.) and SK was detected immunohistochemically. […] SK expression increased markedly after hepatic IR (FIG. 9 middle). Upregulation of SK occurred most overtly in hepatocytes in the midzonal regions of the liver lobule. […] Immunohistochemistry: Sections were deparaffinized in xylene, rehydrated in a series of graded alcohol concentrations and placed in phosphate buffered saline with 0.1% Tween-20. […] Appropriate peroxidase-conjugated secondary antibodies (DAKO Corp.) were then applied, followed by 3,3'-diaminobenzidine chromagen as the peroxidase substrate. A light counterstain of Meyer's hematoxylin was applied.
# [4] = tested on: hepatic apoptosis after warm IR; assay: TUNEL apoptosis in liver after hepatic warm IR; conditions: 1 h-ischemia plus 6 h-reperfusion
# Procedure: ABC294640 prevents hepatic warm IR-induced cell death. SK increased after hepatic IR, therefore, we investigated whether ABC294640 protects against hepatic IR injury. […] Necrotic areas became panlobular after 1 h-ischemia plus 6 h of reperfusion (FIG. 10, middle). Necrotic area, quantified by computerized image analysis of 10 random fields per slide, accounted for 68% of the liver tissue (FIG. 11A). After ABC294640 treatment, necrosis was decreased to 7%, which represents an almost 90% attenuation as compared to the vehicle-treated livers (FIG. 11A). Hepatic apoptosis was evaluated by terminal deoxylnucleotidyl transferase-mediated deoxyuridine triphosphate biotin nick end labeling (TUNEL) (FIG. 11B). TUNEL-positive cells were rare in livers from sham-operated mice (0.13 cells/high power field (hpf)). TUNEL staining increased slightly to 2 cells/hpf after 1 h-ischemia plus 6 h-reperfusion (FIG. 11B). […] The TUNEL assay was performed to assess apoptosis using an In Situ Cell Death Detection Kit (Roche Diagnostics Corp., Indianapolis, Ind.). TUNEL-positive and negative cells were counted in 10 randomly selected fields using a 40× objective lens. Apoptosis was verified morphologically by identifying condensed and fragmented nuclei in 10 randomly selected fields in H+E slides ([…] et al. 1995).
structure (smiles),measurement,setting,value
"O=C(NCc1ccncc1)C12CC3CC(C1)CC(c1ccc(Cl)cc1)(C3)C2 [ABC294640, 3-(4-chlorophenyl)-N-(pyridin-4-ylmethyl)adamantane-1-carboxamide]",mitochondrial depolarization after hepatic IR (in words),[1],rare and largely prevented and prevents mitochondrial depolarization
same,hepatocytes with mitochondrial depolarization,[1]; Rh123,17%
same,decrease of PMN infiltration (MPO-positive cells),"[2]; 50 mg/kg, i.g. once, 6 h after reperfusion",~70%
same,PMN infiltration after hepatic IR (in words),[2]; livers harvested 6 h or 2 weeks after IR,inhibits PMN infiltration
same,PMN infiltration compared to untreated mice,"[2]; one dose, 2 weeks after reperfusion",lower
same,upregulation of SK after hepatic IR,[3],prevents upregulation; also recorded: attenuated upregulation
same,increase of TUNEL-positive cells,[4],partially blocked
